According to patent US3962249A, “1-(3-Phenylpropyl)-4-furoylpiperazine derivatives” (Kyorin Seiyaku Kabushiki Kaisha, priority 1974, dated 1976):

Legend:
[1] = acute toxicity, LD50 in mice by subcutaneous injection (Up and Down method); format: in vivo; conditions: mouse, sc, drugs dissolved in physiological saline
Protocol: **) LD50 in mice by subcutaneous injection of the drugs (calculated
by the Up and Down method). Drugs are dissolved in physiological saline

[2] = test system: acetic acid-induced writhing; test: inhibition of acetic acid-induced writhing counts in mice (analgesic effect); format: in vivo; conditions: Mus musculus, read-out: ED50 (50% Effective dose)

SMILES | LD50 [1] | ED50 [2]
Cc1cccc(CCCN2CCN(C(=O)c3ccco3)CC2)c1.Cl [Example 8, 1-[3-(m-Methylphenyl)propyl]-4-(2-furoyl)piperazine hydrochloride] | 350 mg/kg | 3.35 mg/kg
Cc1ccccc1CCCN1C[C@@H](C)N(C(=O)c2ccco2)C[C@@H]1C.Cl (relative stereo) [Example 15, trans-1-[3-(o-Methylphenyl)propyl]-2,5-dimethyl-4-(2-furoyl)piperazine hydrochloride] | > 750 mg/kg | 1 mg/kg
Cc1occc1C(=O)N1CCN(CCCc2ccccc2)CC1.Cl [Example 11, 1-(3-Phenylpropyl)-4-(2-methyl-3-furoyl)piperazine hydrochloride] | 170 mg/kg | 1.81 mg/kg
CCOc1ccc(CCCN2CCN(C(=O)c3ccco3)CC2)cc1.Cl [Example 9, 1-[3-(p-Ethoxyphenyl)propyl]-4-(2-furoyl)piperazine hydrochloride] | 400 mg/kg | 8.85 mg/kg
Cc1cccc(CCCN2C[C@@H](C)N(C(=O)c3ccco3)C[C@@H]2C)c1.Cl (relative stereo) [Example 16, trans-1-[3-(m-Methylphenyl)propyl]-2,5-dimethyl-4-(2-furoyl)piperazine hydrochloride] | > 500 mg/kg | 1.05 mg/kg
Cl.O=C(c1ccco1)N1CCN(CCCc2ccccc2)CC1 [Example 1, 1-(3-Phenylpropyl)-4-(2-furoyl)piperazine hydrochloride] | 400 mg/kg | 7.8 mg/kg
Cc1ccccc1CCCN1CCN(C(=O)c2ccco2)CC1.Cl [Example 7, 1-[3-(o-Methylphenyl)propyl]-4-(2-furoyl)piperazine hydrochloride] | 400 mg/kg | 3 mg/kg
CC1(C)CN(CCCc2ccccc2)CCN1C(=O)c1ccco1.Cl [Example 5, 1-(3-Phenylpropyl)-3,3-dimethyl-4-(2-furoyl)piperazine hydrochloride] | > 500 mg/kg | 2.2 mg/kg
Cc1cc(C(=O)N2CCN(CCCc3ccccc3)CC2)co1.Cl [Example 12, 1-(3-Phenylpropyl)-4-(5-methyl-3-furoyl)piperazine hydrochloride] | 200 mg/kg | 3.93 mg/kg
C[C@@H]1CN(CCCc2ccccc2)[C@@H](C)CN1C(=O)c1ccco1.Cl (relative stereo) [Example 2, trans-1-(3-Phenylpropyl)-2,5-dimethyl-4-(2-furoyl)-piperazine hydrochloride] | > 500 mg/kg | 1.52 mg/kg
CC1CN(C(=O)c2ccco2)CCN1CCCc1ccccc1 (stereo not drawn) [Example 3, 1-(3-Phenylpropyl)-2-methyl-4-(2-furoyl)piperazine] | 300 mg/kg | 5.17 mg/kg
CC1CN(CCCc2ccccc2)CCN1C(=O)c1ccco1.Cl (stereo not drawn) [Example 4, 1-(3-Phenylpropyl)-3-methyl-4-(2-furoyl)piperazine hydrochloride] | > 750 mg/kg | 3.42 mg/kg
